According to US12528777B2, “Quinazolinones derivatives for treatment of non-alcoholic fatty liver disease, preparation and use thereof” (Council of Scientific and Industrial Research, priority 2020, dated 2026):
“Also recorded” adds a separate entry of the source.

How the values were obtained:
[1] = tested on: ATGL; assay: Western blot of ATGL level in HepG2 cells; format: cell-based; set-up: key to Increase in ATGL level: + = slight or in insignificant; ++ = Moderate; +++ and ++++ = active; +++ and ++++ = active; +++++ = very active; conditions: for Increase in ATGL level: HepG2 cells, score; for Increase in ATGL level / ATGL level in HepG2 cells: western blot; for ATGL level in HepG2 cells: 24 hours, 10 μM screening or 50 nM-5 μM dose dependent; for EC50: fold increase of ATGL by densitometry, as % of 1.6 fold maximum with siCOP1, doses 10-5000 nM, read-out: EC50 (in-vitro)
In short: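 HepG2 cells were treated with compound 24 h (10 μM screen; 50 nM–5 μM dose series) and lysed. 30 μg protein was western blotted for ATGL, with actin as loading reference. ATGL increase was expressed as percent of the 1.6-fold siCOP1 maximum and plotted against log concentration for EC50.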

[2] = Plasma stability assay; format: in vitro ADME, human; conditions: for Mean % remaining at 2 hrs in human Plasma: 1 μM, 37° C., 120 min, LC-MS/MS; for Plasma stability: human plasma, after 2 hours, with respect to Propantheline
Procedure: 1 mM Stock of test compound was prepared from 10 mM initial stock solution of compounds by diluting 10 μL of 10 mM stock with 90 μL of DMSO. Then 10 μL of 1 mM stock was diluted with 90 µL of DMSO to give 100 μM concentration. The frozen plasma was thawed at room temperature and centrifuged at 1400 rpm at 4° C., for 15 minutes. Approximately […] of the clear supernatant fraction was transferred to a separate tube and was used for the assay. Final working stock of 1 μM was prepared by diluting 3 μL of 100 μM with 297 μL of plasma. Plasma containing the test compound was incubated for 120 min at 37° C. in shaker with 500 rpm. 50 μL of aliquot of sample at 0, 15, 30, 60 and 120 minutes were precipitated with 150 μL of acetonitrile containing internal standard and centrifuged at 4000 rpm at 4° C. for 20 minutes. 120 μL of supernatant was diluted with 120 μL of water and analyzed by LC-MS/MS.

[3] = tested on: ATGL; assay: qPCR of ATGL mRNA in HepG2 cells; format: cell-based; conditions: 5 μM and 10 μM, 24 hours
Procedure: Ubiquitination of ATGL by COP1 is a post translational event, therefore, it is expected that the mRNA level of ATGL will not change compared to control upon treatment with the compound of the present disclosure which inhibit COP1. To establish this, HepG2 cells were treated with 5 μM and 10 μM of the compounds 9, 107, 171, 179 and 73 for 24 hours. RNA was isolated using TRIzol reagent followed by chloroform treatment and precipitation with isopropanol. cDNA was obtained from the isolated RNA and qPCR was carried out using SyBr green reagent. COP1 and ATGL gene expression levels were checked. 18s was used as control. FIG. 8 illustrates that compounds exert no effect on the mRNA levels of ATGL.

[4] = Lipophilicity assay (octanol/buffer); format: physicochemical; conditions: for logD: n-octanol / 10 mM sodium phosphate buffer pH 7.4, LC-UV; for Lipophilicity class from Log D: pH 7.4
Procedure: 1.56 g NaH2PO4·2H2O was dissolved in 0.5 L water in a 1 L beaker. After adjusting pH to 7.4 using NaOH solution, the volume was made up to 1 L. Equal volumes of sodium phosphate buffer (10 mM, pH 7.4) and n-octanol were added to a separation funnel and mixed thoroughly by shaking and inverting the funnel several times. The two layers were allowed to separate for overnight and then dispensed in two separate glass bottles. 10 mM stock solution was prepared in 100% DMSO and stored at 4° C. 495 μL of organic phase (1-octanol) was added to each well of a 2 mL deep well plate, followed by 495 μL of buffer and 10 μL of test compound was added. The plate was incubated for 3 hr at room temperature on a plate shaker at 500 rpm. After incubation, the samples were allowed to equilibrate for 20 min and then centrifuged at 4000 rpm for 30 min for complete phase separation and analysed by LC-UV.
Log D=Log (area of octanol/area of buffer)

SMILES | Increase in ATGL level [1] | ATGL level in HepG2 cells [1] | Mean % remaining at 2 hrs in human Plasma [2] | Plasma stability [2] | ATGL mRNA level [3] | EC50 [1] | logD [4] | Lipophilicity class from Log D [4]
COCCn1cnc2ccc(NC(=O)Nc3cccc(C(C)=O)c3)cc2c1=O [Compound 9, 1-(3-acetylphenyl)-3-(3-(2-methoxyethyl)-4-oxo-3,4-dihydroquinazolin-6-yl)urea] | +++++ | increased ATGL level | 16.9% | lower plasma stability | no significant changes |  |  | 
COCCn1c(C)nc2ccc(NC(=O)Nc3cccc(C(C)=O)c3)cc2c1=O [Compound 107, 1-(3-acetylphenyl)-3-(3-(2-methoxyethyl)-2-methyl-4-oxo-3,4-dihydroquinazolin-6-yl)urea] | ++++ |  |  |  | no significant changes |  |  | 
CC(=O)c1cccc(NC(=O)Nc2ccc3ncn(CCCN4CCOCC4)c(=O)c3c2)c1 [Compound 139, 1-(3-acetylphenyl)-3-(3-(3-morpholinopropyl)-4-oxo-3,4-dihydroquinazolin-6-yl)urea] | +++ | increased ATGL level; also recorded: some sort of increase in ATGL level | 55.50% | good plasma stability |  | 1.19 nM | -0.5 | hydrophilic
COCC(C)n1cnc2ccc(NC(=O)Nc3cccc(C(C)=O)c3)cc2c1=O (stereo not drawn) [Compound 179, 1-(3-acetylphenyl)-3-(3-(1-methoxypropan-2-yl)-4-oxo-3,4-dihydroquinazolin-6-yl)urea] | +++++ |  | 20.6% | lower plasma stability | no significant changes |  | 1.69 | ideal lipophilicity
COCCn1c(-c2cccnc2)nc2ccc(NC(=O)Nc3cccc(C(C)=O)c3)cc2c1=O [Compound 215, 1-(3-acetylphenyl)-3-(3-(2-methoxyethyl)-4-oxo-2-(pyridin-3-yl)-3,4-dihydroquinazolin-6-yl)urea] |  | increased ATGL level | 80.70% | good plasma stability |  | 30.2 nM | 0.42 | hydrophilic
COCCn1c(-c2ccncc2)nc2ccc(NC(=O)Nc3cccc(C(C)=O)c3)cc2c1=O [Compound 219, 1-(3-acetylphenyl)-3-(3-(2-methoxyethyl)-4-oxo-2-(pyridin-4-yl)-3,4-dihydroquinazolin-6-yl)urea] |  | increased ATGL level | 73.9% | good plasma stability |  | 29.5 nM | 0.19 | hydrophilic
COCCn1c(CN2CCCCC2)nc2ccc(NC(=O)Nc3cccc(C(C)=O)c3)cc2c1=O [Compound 238, 1-(3-acetylphenyl)-3-(3-(2-methoxyethyl)-4-oxo-2-(piperidin-1-ylmethyl)-3,4-dihydroquinazolin-6-yl)urea] | +++++ | increased ATGL level; also recorded: most potent in increasing ATGL and COP1 levels; also recorded: increase in ATGL and COP1 levels | 98.1% | good plasma stability |  | 1.02 nM | 1.6 | ideal lipophilicity
